Assay results: ChEMBL document CHEMBL1134282 (J Med Chem, 2001)

Key:
Cholinesterase = Cholinesterase (Homo sapiens, UniProt P06276); experiment: In vitro inhibition of human plasma butyrylcholinesterase.; type: cell-free
Acetylcholinesterase = Acetylcholinesterase (Homo sapiens, UniProt P22303); experiment: In vitro inhibition of human erythrocyte acetylcholinesterase.
Acetylcholinesterase, sequence (P22303 whole entry): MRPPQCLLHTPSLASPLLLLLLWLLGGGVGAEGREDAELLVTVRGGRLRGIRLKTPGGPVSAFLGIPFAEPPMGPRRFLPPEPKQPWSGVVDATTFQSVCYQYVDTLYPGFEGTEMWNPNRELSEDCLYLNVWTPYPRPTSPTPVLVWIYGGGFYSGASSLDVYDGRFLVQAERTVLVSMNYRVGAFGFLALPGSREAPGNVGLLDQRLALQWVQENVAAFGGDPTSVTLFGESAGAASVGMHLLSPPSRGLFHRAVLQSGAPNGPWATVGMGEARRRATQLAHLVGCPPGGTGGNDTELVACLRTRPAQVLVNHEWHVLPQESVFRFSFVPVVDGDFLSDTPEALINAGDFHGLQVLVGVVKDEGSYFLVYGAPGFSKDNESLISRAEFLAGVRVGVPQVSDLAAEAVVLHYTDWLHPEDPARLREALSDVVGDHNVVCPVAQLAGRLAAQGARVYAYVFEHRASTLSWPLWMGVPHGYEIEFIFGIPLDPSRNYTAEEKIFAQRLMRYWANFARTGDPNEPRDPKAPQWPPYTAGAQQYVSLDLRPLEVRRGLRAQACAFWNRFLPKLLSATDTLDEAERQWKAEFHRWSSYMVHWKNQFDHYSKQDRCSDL

Cholinesterase, sequence (P06276 whole entry): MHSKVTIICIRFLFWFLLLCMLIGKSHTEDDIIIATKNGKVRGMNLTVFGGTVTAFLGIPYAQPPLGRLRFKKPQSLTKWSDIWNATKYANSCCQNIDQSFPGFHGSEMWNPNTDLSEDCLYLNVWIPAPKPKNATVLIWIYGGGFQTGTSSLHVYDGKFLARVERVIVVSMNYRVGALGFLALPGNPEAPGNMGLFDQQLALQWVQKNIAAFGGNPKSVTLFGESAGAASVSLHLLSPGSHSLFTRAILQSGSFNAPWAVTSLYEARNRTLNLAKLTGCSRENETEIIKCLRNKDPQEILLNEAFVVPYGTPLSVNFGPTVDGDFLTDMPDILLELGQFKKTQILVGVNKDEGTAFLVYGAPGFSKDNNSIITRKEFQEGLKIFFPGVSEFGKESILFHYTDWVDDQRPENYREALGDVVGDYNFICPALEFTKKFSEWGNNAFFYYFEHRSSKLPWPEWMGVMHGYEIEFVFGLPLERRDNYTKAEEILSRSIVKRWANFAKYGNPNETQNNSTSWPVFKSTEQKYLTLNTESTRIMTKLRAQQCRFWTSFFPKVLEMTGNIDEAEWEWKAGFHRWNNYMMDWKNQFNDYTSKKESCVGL

Structure (SMILES)	IC50 (Cholinesterase)	IC50 (Acetylcholinesterase)
CC(C)c1ccccc1NC(=O)Oc1ccc2c(c1)[C@]1(C)CCN(C)[C@@H]1N2C	650 nM	15 nM
Cc1ccc(NC(=O)Oc2ccc3c(c2)[C@]2(C)CCN(C)[C@@H]2N3C)cc1C	66 nM	31 nM
Cc1cc(C)cc(NC(=O)Oc2ccc3c(c2)[C@]2(C)CCN(C)[C@@H]2N3C)c1	798 nM	78 nM
Cc1cccc(NC(=O)Oc2ccc3c(c2)[C@]2(C)CCN(C)[C@@H]2N3C)c1	165 nM	28 nM
CN(C(=O)Oc1ccc2c(c1)[C@]1(C)CCN(C)[C@@H]1N2C)c1ccccc1	> 10000 nM	690 nM
CN(C)Cc1cc2c(cc1OC(=O)Nc1ccccc1)[C@]1(C)CCN(C)[C@@H]1N2C	3890 nM	2500 nM
Cc1cc2c(cc1OC(=O)Nc1ccccc1)[C@]1(C)CCN(C)[C@@H]1N2C	5020 nM	260 nM
CNC(=O)Oc1cc2c(cc1C)N(C)[C@H]1N(C)CC[C@@]21C	8530 nM	> 10000 nM
CCc1cccc(CC)c1NC(=O)Oc1ccc2c(c1)[C@]1(C)CCN(C)[C@@H]1N2C	1100 nM	
Cc1ccc(NC(=O)Oc2ccc3c(c2)[C@]2(C)CCN(C)[C@@H]2N3C)c(C)c1		14 nM
Cc1cccc(NC(=O)Oc2ccc3c(c2)[C@]2(C)CCN(C)[C@@H]2N3C)c1C	170 nM	23 nM
Cc1ccc(C)c(NC(=O)Oc2ccc3c(c2)[C@]2(C)CCN(C)[C@@H]2N3C)c1	490 nM	26 nM
Cc1cccc(C)c1NC(=O)Oc1ccc2c(c1)[C@]1(C)CCN(C)[C@@H]1N2C	290 nM	785 nM
CCc1ccccc1NC(=O)Oc1ccc2c(c1)[C@]1(C)CCN(C)[C@@H]1N2C [ETHYLPHENSERINE]		10 nM
CN1CC[C@@]2(C)c3cc(OC(=O)Nc4ccccc4)ccc3N(C)[C@@H]12 [PHENSERINE]	1560 nM	
